# Reference: patent publication US20160193219A1, “SUBSTITUTED 2,3-DIHYDROIMIDAZO[1,2-C]QUINAZOLINE SALTS” (priority 2011, published 2016)
# Counter-ions that a name gives are not always drawn. Like-named read-outs stand apart in the source and are kept apart here.
# Columns and labels:
# [1] = Stability as solid (stored at 90° C. for 1 week, HPLC); assay type: physicochemical; conditions: for therm. stab. solid: 1 w @ 90° C.; for sum of impurities: HPLC area
# [2] = 16 h
# [3] = for pH: Saturated solution in water; for XRPD (solid residue): solid retained on filter after 20 h in water at 25° C.
# Crystallinity by XRPD = assay type: physicochemical
# MDA-MB-468 = experiment: Proliferation assay (Cell Titer-Glo, 72 h), MDA-MB-468; conditions: MDA-MB-468, Breast, dihydrochloride
# 786O = experiment: Proliferation assay (Cell Titer-Glo, 72 h), 786O; conditions: Kidney, dihydrochloride
# LNCaP = experiment: Proliferation assay (Cell Titer-Glo, 72 h), LNCaP; conditions: Prostate, dihydrochloride
# SK-Br-3 = experiment: Proliferation assay (Cell Titer-Glo, 72 h), SK-Br-3; conditions: SK-Br-3, Breast, dihydrochloride
# [4] = Additional solubility data in different solvents (20 h at 25° C.); assay type: physicochemical
# Experimental: The dihydrochloride of formula (II) was stirred in 20 mL of different solvents for 20 h at 25° C. In all hydrous solvents approx. 2 g of the dihydrochloride of formula (II) have been solved completely.
# H460 = experiment: Proliferation assay (Cell Titer-Glo, 72 h), H460; conditions: H460, Lung, dihydrochloride
# physchem = conditions: 25 °C, water, thermodynamic from solid
# A549 = experiment: Proliferation assay (Cell Titer-Glo, 72 h), A549; conditions: A549, Lung, dihydrochloride
# PC3 = experiment: Proliferation assay (Cell Titer-Glo, 72 h), PC3; conditions: PC3, Prostate, dihydrochloride
# T47D = experiment: Proliferation assay (Cell Titer-Glo, 72 h), T47D; conditions: Breast, dihydrochloride
# HCT116 = experiment: Proliferation assay (Cell Titer-Glo, 72 h), HCT116; conditions: HCT116, Colon, dihydrochloride
# BT474 = experiment: Proliferation assay (Cell Titer-Glo, 72 h), BT474; conditions: BT474, Breast, dihydrochloride
# HT29 = experiment: Proliferation assay (Cell Titer-Glo, 72 h), HT29; conditions: HT29, Colon, dihydrochloride
# MCF7 = experiment: Proliferation assay (Cell Titer-Glo, 72 h), MCF7; conditions: MCF7, Breast, dihydrochloride
# BT20 = experiment: Proliferation assay (Cell Titer-Glo, 72 h), BT20; conditions: BT20, Breast, dihydrochloride
# [5] = tested on: 16 tumor cell lines covering 6 cancer indications; experiment: Proliferation assays, panel of 16 tumor cell lines; assay type: cell-based; conditions: all the tumor cell lines tested (panel of 16)
# Experimental: Cell proliferation is determined using the Cell Titer-Glo luminescent cell viability kit from Promega (Cat. #G7573) after 72 hours exposure to the drugs. Briefly, cells were plated at 500-1000 cells/well of 384-well plates in 25 μL growth medium. For each cell line assayed, cells were plated into a separate plate for determination of luminescence at the t=0 hours and t=72 hour time points. […] Dose plates for t=72 hour time points were treated with compounds diluted into growth medium in a final volume of 30 μL. Cells were then incubated for 72 hours at 37° C. Luminescence values for the t=72 hour samples were determined by adding 30 μL of Promega CellTiter-Glo solution, placing the cells on a shaker for 10 minutes at room temperature, and then reading the luminescence using a Victor luminometer. For data processing, t=0 values are subtracted from those determined for the t=72 hour time points, for both the treated and untreated samples. Percent differences in luminescence between drug treated and controls are used to determine percent inhibition of growth.
# Colo205 = experiment: Proliferation assay (Cell Titer-Glo, 72 h), Colo205; conditions: Colo205, Colon, dihydrochloride
# [6] = solid stored at 90° C. for 1 week
# [7] = listed as Hydrochloric acid (Ex. 1), dihydrochloride
smiles,measurement,setting,value
COc1c(OCCCN2CCOCC2)ccc2c1N=C(NC(=O)c1cnc(N)nc1)N1CCN=C21.CS(=O)(=O)O.CS(=O)(=O)O [Comparative Example 6],therm. stab. solid,[1],+
same,"HPLC, area % DS",[1]; [6],~96.7% (sum of
same,"HPLC, wt % DS",[1]; [6],59.5 wt %
same,sum of impurities,[1]; [6],impurities ~3.3%)
same,aqu. solubility,[2],>8.3 mg/100 ml
same,pH,[3],~2.3
COc1c(OCCCN2CCOCC2)ccc2c1N=C(NC(=O)c1cnc(N)nc1)N1CCN=C21.O=C(O)/C=C\C(=O)O.O=C(O)/C=C\C(=O)O [Comparative Example 5],therm. stab. solid,[1],+
same,"HPLC, area % DS",[1]; [6],~96.9% (sum of
same,"HPLC, wt % DS",[1]; [6],59.4 wt %
same,sum of impurities,[1]; [6],impurities ~3.1%)
same,aqu. solubility,[2],>8.1 mg/100 ml
same,pH,[3],3.1
same,XRPD (solid residue),[3],crystalline
same,crystallinity,Crystallinity by XRPD,+
"COc1c(OCCCN2CCOCC2)ccc2c1N=C(NC(=O)c1cnc(N)nc1)N1CCN=C21 [dihydrochloride salt of formula (II), 2-amino-N-[7-methoxy-8-(3-morpholin-4-ylpropoxy)-2,3-dihydroimidazo[1,2-c]quinazolin-5-yl]pyrimidine-5-carboxamide dihydrochloride]",therm. stab. solid,[1]; [7],+
same,"HPLC, area % DS",[1]; [6],~98.2%; sum of
same,"HPLC, wt % DS",[1]; [6],~65.6 wt %
same,Stability as solid (Comments),[1]; [6],Stable
same,sum of impurities,[1]; [6],impurities ~1.8%
same,IC50,MDA-MB-468,256 nM
same,IC50,786O,247 nM
same,IC50,LNCaP,67 nM
same,IC50,SK-Br-3,1 nM
same,Solubility,"[4]; 0.1M HCl, 20 h at 25° C.",≧8800 mg/100 ml soluble
same,Solubility,"[4]; Acetone, 20 h at 25° C.",0.3 mg/100 ml practically insoluble
same,Solubility,"[4]; Acetonitrile, 20 h at 25° C.",1.1 mg/100 ml practically insoluble
same,Solubility,"[4]; Buffer pH 4.5, 20 h at 25° C.",≧8900 mg/100 ml soluble
same,Solubility,"[4]; Buffer pH 7.0, 20 h at 25° C.",≧8700 mg/100 ml soluble
same,Solubility,"[4]; Ethanol, 20 h at 25° C.",24.8 mg/100 ml very slightly soluble
same,Solubility,"[4]; PEG400, 20 h at 25° C.",301 mg/100 ml slightly soluble
same,Solubility,"[4]; Water, 20 h at 25° C.",≧9400 mg/100 ml soluble
same,IC50,H460,67 nM
same,solubility thermodynamic at 16 h,physchem,> 88 µg/mL
same,pH,[3],~2.4
same,XRPD (solid residue),[3],crystalline
same,Solubility,"[3]; water, 25° C., 20 h, HPLC",>8.8 mg/100 ml
same,IC50,A549,44 nM
same,IC50,PC3,90 nM
same,IC50,T47D,2 nM
same,IC50,HCT116,72 nM
same,IC50,BT474,10 nM
same,IC50,HT29,10 nM
same,IC50,MCF7,9 nM
same,crystallinity,Crystallinity by XRPD; [7],++
same,IC50,BT20,2 nM
same,difference in the IC50 values (free base vs dihydrochloride salt),[5],less than 3 fold
same,IC50,Colo205,110 nM
